# From patent publication US9310353B2, “Method for evaluating bioavailable zinc” (The Procter & Gamble Company, priority 2014, dated 2016)
# pKd: −log10 of the molar value. Marks after values point to notes of the source that are not given here.
# Experiments:
# TR146 cells [1] = experiment: Chelant effects on Zn flux via TR146 measurements (FLIPR); type: cell-based; conditions: relative to the flux of the Zn lactate control; for 50 micro M Chelant Control / 5 micro M Chelant Control: chelant alone, no Zn
# Text: These combinations were then placed into growth media and measurement of Zn uptake into TR146 cells was done using a FLIPR (Fluorescent Imaging Plate Reader) assay, as described in EXAMPLE 2.
# TR146 cells [2] = experiment: Flux of Zn salts in TR146 cells (FLIPR, FluoZin-3 AM); type: cell-based; conditions: for % of Zn Lactate Flux: Zn-lactate = 100%
# Procedure: (§1) Measurement of Zn uptake into TR146 cells was done using a FLIPR (Fluorescent Imaging Plate Reader) assay. The assay was established using a cell membrane permeable version of Zn dye, FluoZin-3 AM (Life Technologies, Grand Island, N.Y.). TR146 cells were grown in 15 ml growth medium [high glucose DMEM (Dulbecco's Modification of Eagle's Medium) supplemented with 10% FBS (fetal bovine serum), 100 units/ml penicillin and 100 μg/ml streptomycin in a 75 cm^2 flask for 3 days at 37° C. in a mammalian cell culture incubator set at 5% CO2. Cells were detached with addition of 10 ml of PBS (phosphate buffered saline) and gentle hand shaking, and transferred to a 50 ml tube and centrifuged at 850 rpm for 3 minutes to remove PBS. After centrifugation, a pellet of cells was formed in the bottom of the tube separating them from the supernatant solution. The supernatant was discarded and the cell pellet suspended in 1 ml of fresh growth medium to which 5 μl (12.5 μg) of FluoZin-3 AM Zn indicator was added and incubated for 30 minutes with gentle shaking. FluoZin-3 AM is a fluorescent dye used for quantifying intracellular Zn concentrations in the 1 to 100 nM to range. At the end of the 30 minutes, 45 ml of assay buffer [1×HBSS (Hank's Balanced Salt Solution), 20 mM HEPES (4-(2-Hydroxyethyl)-1-piperazineethanesulfonic acid)] was added to wash the cells and the resulting combination was then centrifuged at 850 rpm for 3 minutes to remove excess buffer and FluoZin-3 AM Zn indicator. The pelleted cells were re-suspended in 10 ml assay buffer and 90 μl aliquots (˜50,000 cells) per well delivered to a 96-well assay plate and the plate is placed into a fluorometric imaging plate reader (FLIPR384 from Molecular Devices, Sunnyvale, Calif.) and basal fluorescence recorded (excitation wave length 494 nm and emission wave length 516 nm). Then Zn salt (for example Zn-lactate) was added and the increase in fluorescence was recorded for 5 minutes. Zn-flux observed with different Zn salts with Zn-lactate value as reference (100%) is shown below in TABLE 2.
# [3] = read-out: Affinity Kd (Zn^2+); cited from earlier work
# TR146 cells [4] = experiment: Screening of Zn indicators by Zn uptake into TR146 cells (FLIPR); type: cell-based; conditions: Zn indicators screened using TR146 cells
# Procedure: As with most metal ions, the choice of indicator is dependent on the cell type, ion channel, and metal specificity.
# (§2) To screen the Zn indicators, measurement of Zn uptake into TR146 cells was done using a FLIPR (Fluorescent Imaging Plate Reader) assay. The assay was established using a cell membrane permeable version of Zn-indicator, FluoZin-3 AM (Life Technologies, Grand Island, N.Y.). TR146 cells were grown to confluency in 15 ml growth medium [high glucose DMEM (Dulbecco's Modification of Eagle's Medium) supplemented with 10% FBS (fetal bovine serum), 100 units/ml penicillin and 100 μg/ml streptomycin in a 75 cm^2 flask for 3 days at 37° C. in a mammalian cell culture incubator set at 5% CO2. […] FluoZin-3 AM is a fluorescent dye used for quantifying intracellular Zn concentrations in the 1 to 100 nM to range. […] The pelleted cells were re-suspended in 10 ml assay buffer and 90 μl aliquots (˜50,000 cells) per well delivered to a 96-well assay plate and the plate was placed into a fluorometric imaging plate reader (FLIPR384 from Molecular Devices, Sunnyvale, Calif.) and basal fluorescence recorded (excitation wave length 494 nm and emission wave length 516 nm). Then Zn salt (for example Zn-lactate) was added and the increase in fluorescence was recorded for 5 minutes. […]
# TR146 cells [5] = experiment: Polyquats blocking Zn uptake into TR146 cells (FLIPR); type: cell-based; conditions: Control Zn lactate
# Procedure: as §1, with “TABLE 2. […]” for “TABLE 2.”
# TR146 cells [6] = experiment: Effects of cationic polymers and dentifrice binders on uptake of zinc lactate by TR146 cells; type: cell-based; conditions: 50 μM Zn Lactate alone (reference)
# Text: After centrifugation, a pellet of cells was formed in the bottom of the tube separating them from the supernatant solution.
# TR146 cells [7] = experiment: Bioavailability of Zn from formulated dentifrices and rinses, Zn uptake by TR146 cells (FLIPR); type: cell-based; conditions: 0.01% Dentifrices A-D tested on the TR146 cells; Zn Lactate Control = 100%
# Procedure: as §2, with “Measurement of” for “To screen the Zn indicators, measurement of”, “of Zn dye,” for “of Zn-indicator,”, “grown” for “grown to confluency”, “CO2. Cells were detached with addition of 10 ml of PBS (phosphate buffered saline) and gentle hand shaking, and transferred to a 50 ml tube and centrifuged at 850 rpm for 3 minutes to remove PBS.” for “CO2.”, “plate is” for “plate was”
# TR146 cells [8] = experiment: Competitive inhibition of Zn flux from zinc chloride by amine polymers in TR146 cells; type: cell-based; conditions: ZnCl2 140 uM alone (reference)
# Procedure: as §2, with “Measurement of” for “To screen the Zn indicators, measurement of”, “of Zn dye,” for “of Zn-indicator,”, “grown” for “grown to confluency”, “CO2. Cells were detached with addition of 10 ml of PBS (phosphate buffered saline) and gentle hand shaking, and transferred to a 50 ml tube and centrifuged at 850 rpm for 3 minutes to remove PBS.” for “CO2.”, “plate is” for “plate was”
# [9] = Zn salt concentration Saturated
smiles,measurement,setting,value
O=P1([O-])OP(=O)([O-])OP(=O)([O-])OP(=O)([O-])OP(=O)([O-])OP(=O)([O-])O1.[Na+].[Na+].[Na+].[Na+].[Na+].[Na+] [Sodium Hexametaphosphate],50 micro M Chelant Control,TR146 cells [1],0.00%
same,"Zn flux, 5 micro M Chelant + 5 micro M Zn lactate",TR146 cells [1],105.02%
same,"Zn flux, 50 micro M Chelant + 50 micro M Zn lactate",TR146 cells [1],63.81%*
O=P([O-])([O-])[O-].O=P([O-])([O-])[O-].[Zn+2].[Zn+2].[Zn+2] [ZnPhosphate],Fluorescence Unit,TR146 cells [2]; [9],49686.65
same,% of Zn Lactate Flux,TR146 cells [2]; [9],105.13%
NCC(=O)[O-].NCC(=O)[O-].[Zn+2] [ZnGlycinate],Fluorescence Unit,TR146 cells [2]; Zn salt concentration 4.40%,41086.61
same,% of Zn Lactate Flux,TR146 cells [2]; Zn salt concentration 4.40% (206 mM),86.93%
O=S(=O)([O-])[O-].[Zn+2] [ZnSO4],Fluorescence Unit,TR146 cells [2]; Zn salt concentration 1 mM,47853.41
same,% of Zn Lactate Flux,TR146 cells [2]; Zn salt concentration 1 mM,101.25%
O=C([O-])C(=O)[O-].[Zn+2] [ZnOxalate],Fluorescence Unit,TR146 cells [2]; [9],55389.93
same,% of Zn Lactate Flux,TR146 cells [2]; [9],117.2%
O=C([O-])CC(O)(CC(=O)[O-])C(=O)[O-].[Na+].[Na+].[Na+] [Sodium citrate],5 micro M Chelant Control,TR146 cells [1],0.00%
same,50 micro M Chelant Control,TR146 cells [1],0.00%
same,"Zn flux, 5 micro M Chelant + 5 micro M Zn lactate",TR146 cells [1],104.83%
same,"Zn flux, 50 micro M Chelant + 50 micro M Zn lactate",TR146 cells [1],43.63%
CC(=O)[O-].CC(=O)[O-].[Zn+2] [ZnAcetate],Fluorescence Unit,TR146 cells [2]; Zn salt concentration 10 uM,48547.79
same,% of Zn Lactate Flux,TR146 cells [2]; Zn salt concentration 10 uM,102.72%
[O-][n+]1ccccc1[S-].[O-][n+]1ccccc1[S-].[Zn+2] [ZnPyrithione],Fluorescence Unit,TR146 cells [2]; Zn salt concentration 10 mM,50467.87
same,% of Zn Lactate Flux,TR146 cells [2]; Zn salt concentration 10 mM,106.78%
O=C([O-])[C@H](O)[C@@H](O)[C@H](O)[C@H](O)CO.[Na+] [Sodium D-gluconate],5 micro M Chelant Control,TR146 cells [1],1.51%
same,50 micro M Chelant Control,TR146 cells [1],0.00%
same,"Zn flux, 5 micro M Chelant + 5 micro M Zn lactate",TR146 cells [1],101.31%
same,"Zn flux, 50 micro M Chelant + 50 micro M Zn lactate",TR146 cells [1],112.99%
[O-2].[Zn+2] [ZnOxide],Fluorescence Unit,TR146 cells [2]; [9],50391.21
same,% of Zn Lactate Flux,TR146 cells [2]; [9],106.62%
O=P(O)(O)O[C@H]1[C@H](OP(=O)(O)O)[C@@H](OP(=O)(O)O)[C@H](OP(=O)(O)O)[C@@H](OP(=O)(O)O)[C@H]1OP(=O)(O)O [Phytic acid],5 micro M Chelant Control,TR146 cells [1],0.00%
same,50 micro M Chelant Control,TR146 cells [1],0.00%
same,"Zn flux, 5 micro M Chelant + 5 micro M Zn lactate",TR146 cells [1],20.07%
same,"Zn flux, 50 micro M Chelant + 50 micro M Zn lactate",TR146 cells [1],33.87%
COc1ccc(N(CC(=O)O)CC(=O)O)c(OCCOc2cc(-c3c4cc(F)c(=O)cc-4oc4cc(O)c(F)cc34)ccc2NCC(=O)O)c1 [FluoZin-3],pKd,[3],7.82
same,affinity for the flux of Zn into the TR146 cell line,TR146 cells [4],most affinity for the flux of Zn into the TR146 cell line
O=P(O)(O)OP(=O)(O)OP(=O)(O)O [Sodium tripolyphosphate],5 micro M Chelant Control,TR146 cells [1],0.00%
same,50 micro M Chelant Control,TR146 cells [1],0.00%
same,"Zn flux, 5 micro M Chelant + 5 micro M Zn lactate",TR146 cells [1],92.99%
same,"Zn flux, 50 micro M Chelant + 50 micro M Zn lactate",TR146 cells [1],0.00%
same,"Zn flux, 50 micro M Chelant + 50 micro M Zn lactate",TR146 cells [1]; listed as sodium tripolyphosphate,did not allow for any measureable levels of Zn to be detected
CC(O)C(=O)[O-].CC(O)C(=O)[O-].[Zn+2] (centres unmarked) [Zn Lactate],Fluorescent Counts with no Zn,TR146 cells [5]; no quat,24.5
same,Fluorescent counts with Zn,TR146 cells [5]; no quat,1774.8
same,% Reduction compared to Zn control,TR146 cells [5]; no quat (reference),0%
same,Fluorescence Units (percentage of zinc lactate),TR146 cells [6],100%
same,"Zn flux, Zn Only","TR146 cells [1]; No chelant, 50 micro M Zn Lactate",100%*
same,% of Zn Lactate Control (% Zn uptake by TR146 cells),TR146 cells [7],100%
O=P([O-])(O)OP(=O)([O-])O.[Na+].[Na+] [Sodium acid pyrophosphate],5 micro M Chelant Control,TR146 cells [1],0.00%
same,50 micro M Chelant Control,TR146 cells [1],0.00%
same,"Zn flux, 5 micro M Chelant + 5 micro M Zn lactate",TR146 cells [1],82.87%
same,"Zn flux, 50 micro M Chelant + 50 micro M Zn lactate",TR146 cells [1],0.00%
same,"Zn flux, 50 micro M Chelant + 50 micro M Zn lactate",TR146 cells [1]; listed as sodium acid pyrophosphate,did not allow for any measureable levels of Zn to be detected
[Cl-].[Cl-].[Zn+2] [ZnCl2],Zn Flux as a percentage of the Zn Chloride Control,TR146 cells [8],100%
same,Fluorescence Unit,TR146 cells [2]; Zn salt concentration 1 mM,47853.41
same,% of Zn Lactate Flux,TR146 cells [2]; Zn salt concentration 1 mM,101.25%
